According to US20250353816A1, “QUINOLINES AS MODULATORS OF POLRMT” (Pretzel Therapeutics, Inc., priority 2024, published 2025):

Target: POLRMT (Homo sapiens (Human), UniProt O00411)
Assay: homogeneous TR-FRET assay of mitochondrial transcription (inhibition of POLRMT)
Format: biochemical
Conditions: 7.5 nM POLRMT, 15 nM TFB2M, 30 nM TFAM, 60 minutes at 37° C.
Protocol: The inhibitory activity of the compounds of the present invention against POLRMT were determined by assays based on Bergbrede, T., et al., “An adaptable high-throughput technology enabling the identification of specific transcription modulators,” SLAC Discov., 22, 378-386 (2017).
The ability of some compounds of the present invention to inhibit POLRMT were determined in a homogeneous TR-FRET Assay using high-throughput screening in a 384-well plate format. This method is used to monitor the activity of mitochondrial transcription through measurement of its product, a 407 bp long RNA transcript. Detection of the product is facilitated by hybridization of two DNA-oligonucleotide probes to specific and adjacent sequences within the RNA product sequence. Upon annealing of the probes, two fluorophores are coupled directly to an acceptor nucleotide probe (ATTO647, 5′), or introduced via a coupled streptavidin with a biotinylated donor nucleotide probe (Europium cryptate) that is brought into sufficient proximity to serve as a fluorescence-donor-acceptor pair. Thus, a FRET signal at 665 nm is generated upon excitation at 340 nm.
Proteins used as transcription factors (POLRMT: NP_005026.3, TFAM: NP_003192.1, TFB2M: NP_071761.1) are diluted from their stocks to working concentrations of 1 μM, 20 μM and 4 μM respectively, in a dilution buffer containing 20 mM Tris-HCl (pH 8.0), 200 mM NaCl, 10% (v/v) glycerol, 1 mM Dithiothreitol (DTT), 0.5 mM EDTA.
DNA template is a pUC18 plasmid with the mitochondrial light strand promotor sequence (1-477) cloned between HindIII and BamHI sites. The DNA template is restriction linearized proximal to the promotor 3′-end (pUC-LSP).
The reaction mixture (10 uL) containing 7.5 nM POLRMT, 15 nM of TFB2M, 30 nM of TFAM, 0.5 nM of DNA template and 500 μM nucleotide triphosphate mix (NTPs) in a reaction buffer (containing 10 mM Tris-HCl (pH 7.5), 10 mM MgCl2, 40 mM NaCl, 10 mM DTT, 0.005% (w/v) Tween-20, 160 units/ml Rnase inhibitor and 0.1 mg/mL BSA) are dispensed to compounds in microplates, using a Thermo Multidrop® dispenser, and incubated at 37° C. in a VWR INCU-Line incubator for 60 minutes after mixing. No nucleotide triphosphate mix is added to negative control samples. Microplates with compounds to be tested in the assay are prepared from 10 mM compound stocks in 100% DMSO, equal amounts of DMSO without any compound are added to positive control and negative control samples.
During the incubation, a mix of the detection reagents is prepared in a buffer such that the enzymatic reaction is terminated due to chelating of Mg-ions and increased ionic strength, containing 50 mM Tris-HCl (pH 7.5), 700 mM NaCl, 20 mM EDTA, and 0.01% (w/v) Tween-20. Europium-streptavidin is pre-incubated with a 200-fold molar excess of a random sequence oligonucleotide to block unspecific binding of oligo, for two hours at ambient temperature in the dark. Afterwards, the blocked Europium-streptavidin is kept on ice until use.
At the end of the enzymatic reaction time, 5 μL detection oligo mix in the detection buffer is added, and assay plates are mixed and kept at ambient temperature for one hour, protected from light. The concentration of the Acceptor nucleotide oligo (e.g., ATTO647N-5′-[…]-3′ (SEQ ID NO: 1)) and Donor nucleotide oligo (e.g., bio-5′-AACACATCTCT(-bio)GCCAAACCCCA-bio-3′ (SEQ ID NO: 2)) in each assay well is 1 nM, and 3 nM, respectively.
After incubation with oligo mix, 5 μL of pre-blocked Europium-streptavidin reagent is dispensed to each assay well, assay plates are again mixed and kept at ambient temperature for one hour, protected from light.
The generated signal is measured with BMG Pherastar microtiter plate reader with a TRF light unit, using excitation at 340 nm, an integration time of 200 μs, and a delay time of […], before detection at 620 nm and 665 nm. The ratio of donor- and acceptor-fluorescence is used as a measure of the generated transcript product (i.e. enzymatic activity).

Sequence of POLRMT (O00411 42-1230): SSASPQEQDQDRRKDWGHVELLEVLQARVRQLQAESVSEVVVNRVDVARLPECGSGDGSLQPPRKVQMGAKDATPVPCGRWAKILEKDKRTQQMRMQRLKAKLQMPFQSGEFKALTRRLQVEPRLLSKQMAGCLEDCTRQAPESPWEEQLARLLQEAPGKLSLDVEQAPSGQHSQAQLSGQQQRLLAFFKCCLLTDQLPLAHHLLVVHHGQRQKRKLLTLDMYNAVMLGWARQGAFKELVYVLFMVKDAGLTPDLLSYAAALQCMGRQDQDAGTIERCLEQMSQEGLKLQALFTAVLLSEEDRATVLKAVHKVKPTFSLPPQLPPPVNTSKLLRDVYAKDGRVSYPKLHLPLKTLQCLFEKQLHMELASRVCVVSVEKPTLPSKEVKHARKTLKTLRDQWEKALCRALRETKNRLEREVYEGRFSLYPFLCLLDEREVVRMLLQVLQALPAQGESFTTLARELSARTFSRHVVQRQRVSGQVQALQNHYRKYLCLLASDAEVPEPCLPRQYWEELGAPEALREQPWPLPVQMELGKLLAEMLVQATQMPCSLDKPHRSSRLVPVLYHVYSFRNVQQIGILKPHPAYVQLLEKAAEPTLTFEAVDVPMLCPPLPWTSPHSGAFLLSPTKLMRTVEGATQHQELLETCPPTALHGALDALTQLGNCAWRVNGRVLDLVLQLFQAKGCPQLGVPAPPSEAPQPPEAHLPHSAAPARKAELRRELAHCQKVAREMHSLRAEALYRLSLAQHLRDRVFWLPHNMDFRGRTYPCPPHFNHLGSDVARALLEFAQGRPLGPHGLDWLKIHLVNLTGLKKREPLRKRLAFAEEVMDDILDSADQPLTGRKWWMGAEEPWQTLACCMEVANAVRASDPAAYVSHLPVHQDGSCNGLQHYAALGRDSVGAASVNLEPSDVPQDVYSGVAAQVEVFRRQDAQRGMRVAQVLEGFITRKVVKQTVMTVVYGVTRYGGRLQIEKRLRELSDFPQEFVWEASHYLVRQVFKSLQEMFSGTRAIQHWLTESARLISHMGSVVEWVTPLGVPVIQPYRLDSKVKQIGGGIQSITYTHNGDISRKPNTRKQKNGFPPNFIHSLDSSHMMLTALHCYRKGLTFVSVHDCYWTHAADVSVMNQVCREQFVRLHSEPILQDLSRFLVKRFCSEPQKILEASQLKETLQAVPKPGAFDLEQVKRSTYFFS

| IC50 [µM] | Compound |
| --- | --- |
| 79 | Cc1ccccc1-c1ccnc2cc(C(C)CC(=O)N(C)C)ccc12 (single isomer, unassigned) [Example 37, N,N-dimethyl-3-(4-(o-tolyl)quinolin-7-yl)butanamide] |
| 37 | Cc1ccccc1-c1ccnc2cc(C(C)CC(=O)N(C)C)ccc12 (single isomer, unassigned) [Example 38, N,N-dimethyl-3-(4-(o-tolyl)quinolin-7-yl)butanamide] |
| 3 | Cc1ccccc1-c1ccnc2cc(NC(C)C(=O)N3CCCCC3)ccc12 (single isomer, unassigned) [Example 53, 1-(piperidin-1-yl)-2-((4-(o-tolyl)quinolin-7-yl)amino)propan-1-one] |
| 26 | CNC(=O)c1ccc2c(-c3ccccc3C)ccnc2c1 [Example 3, N-methyl-4-(o-tolyl)quinoline-7-carboxamide] |
| 90 | Cc1ccccc1-c1ccnc2cc(C(=O)NCc3ccccc3)ccc12 [Example 6, N-benzyl-4-(o-tolyl)quinoline-7-carboxamide] |
| > 100 | Cc1ccccc1-c1ccnc2cc(C(=O)N3CCOCC3)ccc12 [Example 7, morpholino-[4-(o-tolyl)-7-quinolyl]methanone] |
| > 100 | CC(=O)N1CCN(C(=O)c2ccc3c(-c4ccccc4C)ccnc3c2)CC1 [Example 9, 1-(4-(4-(o-tolyl)quinoline-7-carbonyl)piperazin-1-yl)ethan-1-one] |
| 50 | Cc1ccccc1-c1ccnc2cc(CO)ccc12 [Example 10, (4-(o-tolyl)quinolin-7-yl)methanol] |
| 29 | Cc1ccccc1-c1ccnc2cc(CNC(=O)C3CCCC3)ccc12 [Example 13, N-((4-(o-tolyl)quinolin-7-yl)methyl)cyclopentanecarboxamide] |
| 68 | Cc1ccccc1-c1ccnc2cc(CNS(=O)(=O)c3ccccc3)ccc12 [Example 14, N-((4-(o-tolyl)quinolin-7-yl)methyl)benzenesulfonamide] |
| 36 | Cc1ccccc1-c1ccnc2cc(C(C)O)ccc12 (centres unmarked) [Example 18, 1-(4-(o-tolyl)quinolin-7-yl)ethan-1-ol] |
| 5 | COCc1ccc2c(-c3ccccc3C)ccnc2c1 [Example 19, 7-(methoxymethyl)-4-(o-tolyl)quinoline] |
| > 100 | Cc1ccccc1-c1ccnc2cc(CN3CCCC3)ccc12 [Example 26, 7-(pyrrolidin-1-ylmethyl)-4-(o-tolyl)quinoline] |
| > 100 | Cc1ccccc1-c1ccnc2cc(CN3CCN(C)CC3)ccc12 [Example 28, 7-((4-methylpiperazin-1-yl)methyl)-4-(o-tolyl)quinoline] |

Second part, the compound before the results:

| Compound | IC50 [µM] |
| --- | --- |
| Cc1ccccc1-c1ccnc2cc(CC(C)C(=O)N3CCCCC3)ccc12 (single isomer, unassigned) [Example 34, 2-methyl-1-(piperidin-1-yl)-3-(4-(o-tolyl)quinolin-7-yl)propan-1-one] | 2 |
| Cc1ccccc1-c1ccnc2cc(CC(C)C(=O)N3CCCCC3)ccc12 (single isomer, unassigned) [Example 35, 2-methyl-1-(piperidin-1-yl)-3-(4-(o-tolyl)quinolin-7-yl)propan-1-one] | 70 |
| Cc1ccccc1-c1ccnc2cc(NC(C)C(=O)N(C)C)ccc12 (single isomer, unassigned) [Example 48, N,N-dimethyl-2-((4-(o-tolyl)quinolin-7-yl)amino)propanamide] | > 100 |
| Cc1ccccc1-c1ccnc2cc(NC(C)C(=O)N(C)C)ccc12 (single isomer, unassigned) [Example 49, N,N-dimethyl-2-((4-(o-tolyl)quinolin-7-yl)amino)propanamide] | 10 |
| Cc1ccccc1-c1ccnc2cc(NC(C)C(=O)N3CCOCC3)ccc12 (single isomer, unassigned) [Example 50, 1-morpholino-2-((4-(o-tolyl)quinolin-7-yl)amino)propan-1-one] | 2 |
| Cc1ccccc1-c1ccnc2cc(NC(C)C(=O)N3CCOCC3)ccc12 (single isomer, unassigned) [Example 51, 1-morpholino-2-((4-(o-tolyl)quinolin-7-yl)amino)propan-1-one] | > 100 |
| Cc1ccccc1-c1ccnc2cc(NC(C)C(=O)N3CCCCC3)ccc12 (single isomer, unassigned) [Example 52, 1-(piperidin-1-yl)-2-((4-(o-tolyl)quinolin-7-yl)amino)propan-1-one] | > 100 |
| COC(=O)c1ccc2c(-c3ccccc3C)ccnc2c1 [Example 1, methyl 4-(o-tolyl)quinoline-7-carboxylate] | 3 |
| Cc1ccccc1-c1ccnc2cc(C(N)=O)ccc12 [Example 2, 4-(o-tolyl)quinoline-7-carboxamide] | > 100 |
| Cc1ccccc1-c1ccnc2cc(C(=O)N(C)C)ccc12 [Example 4, N,N-dimethyl-4-(o-tolyl)quinoline-7-carboxamide] | > 100 |
| Cc1ccccc1-c1ccnc2cc(C(=O)N(C)Cc3ccccc3)ccc12 [Example 5, N-benzyl-N-methyl-4-(o-tolyl)quinoline-7-carboxamide] | > 100 |
| Cc1ccccc1-c1ccnc2cc(C(=O)N3CCN(C)CC3)ccc12 [Example 8, (4-methylpiperazin-1-yl)-[4-(o-tolyl)-7-quinolyl]methanone] | > 100 |
| CC(=O)Nc1ccc2c(-c3ccccc3C)ccnc2c1 [Example 11, N-(4-(o-tolyl)quinolin-7-yl)acetamide] | 10 |
| Cc1ccccc1-c1ccnc2cc(CNC(=O)OC(C)(C)C)ccc12 [Example 12, tert-butyl ((4-(o-tolyl)quinolin-7-yl)methyl)carbamate] | 15 |
| COC(=O)NCc1ccc2c(-c3ccccc3C)ccnc2c1 [Example 15, methyl ((4-(o-tolyl)quinolin-7-yl)methyl)carbamate] | 59 |
| Cc1ccccc1-c1ccnc2cc(N(C)C)ccc12 [Example 16, N,N-dimethyl-4-(o-tolyl)quinolin-7-amine] | 7 |
| Cc1ccccc1-c1ccnc2cc(CCO)ccc12 [Example 17, 2-(4-(o-tolyl)quinolin-7-yl)ethan-1-ol] | 10 |
| Cc1ccccc1-c1ccnc2cc(CN3CCOCC3)ccc12 [Example 20, 4-((4-(o-tolyl)quinolin-7-yl)methyl)morpholine] | > 100 |
| CC(=O)N1CCN(Cc2ccc3c(-c4ccccc4C)ccnc3c2)CC1 [Example 21, 1-(4-((4-(o-tolyl)quinolin-7-yl)methyl)piperazin-1-yl)ethan-1-one] | > 100 |
| Cc1ccccc1-c1ccnc2cc(CNS(C)(=O)=O)ccc12 [Example 22, N-((4-(o-tolyl)quinolin-7-yl)methyl)methanesulfonamide] | 72 |
| Cc1ccccc1-c1ccnc2cc(CN(C)S(=O)(=O)c3ccccc3)ccc12 [Example 23, N-methyl-N-((4-(o-tolyl)quinolin-7-yl)methyl)benzenesulfonamide] | > 100 |
| Cc1ccccc1-c1ccnc2cc(CN(C)C(=O)C3CCCC3)ccc12 [Example 24, N-methyl-N-((4-(o-tolyl)quinolin-7-yl)methyl)cyclopentanecarboxamide] | 10 |
| Cc1ccccc1-c1ccnc2cc(CN3CCCC3=O)ccc12 [Example 25] | > 100 |
| COC(C)c1ccc2c(-c3ccccc3C)ccnc2c1 (centres unmarked) [Example 27, 7-(1-methoxyethyl)-4-(o-tolyl)quinoline] | 8 |
